Data set [1] is described as follows: Drug toxicity assay in human foreskin fibroblast (HFF) cells, resazurin. The format is cell-based. The settings on record: HFF (human foreskin fibroblast) cells; human foreskin fibroblasts; highest concentration tested 100 µg/mL; mean ± SEM, n>=3. For orientation: Resazurin is reduced to fluorescent resorufin, in cell work by metabolically active cells.
The next data set relates to HFF cells. Described as above. As to conditions: EC50 (HFF)/EC50(427-WT). The data set is classed as cell-based.
In the next data set the test system is T. congolense DA-Res. The data set is classed as cell-based, Trypanosoma congolense. The settings on record: for EC50: Trypanosoma congolense, read-out: T. congolense EC50, DA-Res. As for the experimental part:
(§1) The four compounds were tested for activity against the following three kinetoplastid pathogens: Trypanosoma brucei brucei, Trypanosoma congolense, and Leishmania mexicana. For the two Trypanosoma species, the compounds were tested in parallel against strains that were resistant to the most common trypanocides. T. b. brucei B48 is highly resistant to the entire classes of diamidines and melaminophenyl arsenicals, and T. congolense DA-Res was rendered resistant to diminazene aceturate by means of in vitro exposure to the drug. […] For the drug-resistant trypanosome strains, highly significant resistance to diamidines was confirmed, but there was no cross-resistance with the chalcones and flavanones. […] While this dataset of two chalcones is self-evidently insufficient for a structure–activity relationship (SAR) analysis, it is clear that the position of the hydroxy and methoxy groups on ring A (Figure 1) influenced the trypanocidal activity without increasing the toxicity.

For the next data set, the system named is T. b. brucei B48. Briefly: Alamar Blue (resazurin) assay, multi-drug resistant T. b. brucei B48. The data set is classed as cell-based. The settings on record: Trypanosoma brucei, read-out: T. b. brucei EC50, B48. The method, then:
as §1

Another data set deals with T. congolense IL3000-WT. Kind of data set: Alamar Blue (resazurin) assay, T. congolense IL3000 wild-type bloodstream forms.
A further data set has as its system T. b. brucei 427-WT. Kind of data set: Alamar Blue (resazurin) assay, T. b. brucei Lister 427 wild-type bloodstream forms. The settings on record: for EC50: Trypanosoma brucei; for activity against Trypanosoma species (in words): Trypanosoma species (T. b. brucei and T. congolense).
Setting [2] is: 72 h, read-out: T. b. brucei EC50, 427-WT, bloodstream forms, 48 h + 24 h resazurin, mean ± SEM, n>=3.

Structures are written as SMILES. Converted amounts (≈) assume the structure as drawn. Where two headings read alike, the source gives them in different places. Some results are limits rather than exact numbers.

In general, EC50 refers to the concentration that produces a half-maximal response. Turning to `COc1cc(O)c(C(=O)/C=C/c2ccccc2)c(OC)c1` [Compound 1, 2′,4′-dimethoxy-6′-hydroxychalcone], the concentration for a half-maximal effect (EC50) at 54 h in data set [1] is over 350 µM. Moreover, in the data set with HFF cells, the “SI (Tbb), selectivity index = EC50(HFF)/EC50(Tbb)” value is over 172. The EC50 with T. congolense DA-Res is 8.8 ± 0.28 µM; in the data set on T. b. brucei B48, 1.8 µM; with T. congolense IL3000-WT (Trypanosoma congolense, read-out: EC50 against T. congolense) it was 2.5 µg/mL (≈ 8.79 µM); in the data set with T. b. brucei 427-WT (setting [2]), about 2 µM; with T. b. brucei 427-WT (read-out: EC50 against Trypanosoma brucei brucei, standard resazurin-based assay), 0.58 µg/mL. The “activity against T. congolense (in words)” value in the data set with T. congolense IL3000-WT is reported as “moderate activity”.
In data set [1], `COc1cc(O)c(OC)c(O)c1C(=O)/C=C/c1ccccc1` [Compound 2, 2′,5′-dimethoxy-4′,6′-dihydroxychalcone] registered an EC50 at 54 h of over 330 µM. For the same compound, the “SI (Tbb), selectivity index = EC50(HFF)/EC50(Tbb)” value in the data set with HFF cells was over 22.8. Also, the half-maximal effective concentration (EC50) in the data set with T. congolense DA-Res came out at 28.6 ± 1.4 µM; with T. b. brucei B48, 13.9 ± 0.6 µM; in the data set on T. b. brucei 427-WT (setting [2]), 14.6 ± 0.8 µM. Also, the “fold less activity than compound 1 against T. congolense” value with T. congolense IL3000-WT (relative to compound 1) is about 4 fold. Besides, the “fold less activity than compound 1 against T. b. brucei” value in the data set with T. b. brucei 427-WT (relative to compound 1) is recorded as “about 8 fold”.
As to `COc1cc(OC)c2c(c1)OC(c1ccccc1)CC2=O` (stereo not drawn) [Compound 3, 5,7-dimethoxyflavanone], the EC50 at 54 h in data set [1] was over 350 µM. Further, the “SI (Tbb), selectivity index = EC50(HFF)/EC50(Tbb)” value in the data set on HFF cells is over 11.7. For the same compound, the concentration giving a half-maximal response (EC50) in the data set on T. congolense DA-Res came to 106 ± 15 µM; in the data set on T. b. brucei B48 it was 30.3 ± 1.1 µM; in the data set on T. b. brucei 427-WT (setting [2]) it was 30.1 ± 0.95 µM. Further, the “activity against Trypanosoma species (in words)” value in the data set with T. b. brucei 427-WT is “moderate activity”.
In turn, `COc1cc(O)c(OC)c2c1C(=O)CC(c1ccccc1)O2` (stereo not drawn) [Compound 4, 5,8-dimethoxy-7-hydroxyflavanone] showed an EC50 at 54 h in data set [1] of over 330 µM. Also, the “SI (Tbb), selectivity index = EC50(HFF)/EC50(Tbb)” value with HFF cells is over 6.0. The EC50 is 48 ± 6.2 µM in the data set with T. congolense DA-Res, 51.9 ± 1.6 µM with T. b. brucei B48 and 55.3 ± 1.6 µM with T. b. brucei 427-WT (setting [2]). The “activity against Trypanosoma species (in words)” value in the data set with T. b. brucei 427-WT is “moderate activity”.
As for `N=C(N)c1ccc(/N=N/Nc2ccc(C(=N)N)cc2)cc1` [Diminazene, diminazene aceturate, reference compound], the figures for the EC50 in the data set with T. congolense DA-Res, with T. b. brucei B48 and in the data set on T. b. brucei 427-WT (setting [2]) were 1.43 ± 0.03 µM, 2.4 ± 0.36 µM and 0.15 ± 0.01 µM, respectively. Moreover, the “resistance of clone 6C3 versus IL3000” value with T. congolense DA-Res (line adapted in vitro to diminazene aceturate) was ~ 10 fold.
Regarding `N=C(N)c1ccc(OCCCCCOc2ccc(C(=N)N)cc2)cc1` [Pentamidine, reference compound], the 50% effective concentration (EC50) was found to be 0.72 ± 0.03 µM with T. b. brucei B48 and 0.0034 ± 0.0004 µM in the data set with T. b. brucei 427-WT (setting [2]).
